In patent US9776990B2, “Isoindolone derivatives” (AbbVie Inc., priority 2012, dated 2017):
Marks after values point to notes of the source that are not given here.

Experiments:
[1] = test system: HT1080 human fibrosarcoma xenograft; experiment: Xenograft tumor growth inhibition assay, HT1080; format: in vivo, mice; settings: BID x 14, based on day 18
Protocol: (§1) The effect of the compound of Example 40 to inhibit the growth of Ramos, OPM-2, MX-1, MV4-11, and HT1080 xenograft tumors was evaluated. Briefly, 0.5×10^6 human cancer cells (HT1080), 1×10^6 human cancer cells (Ramos), 5×10^6 human cancer cells (OPM-2, MV4-11) or 1:10 tumor brie (MX-1) (in S-MEM (MEM, Suspension, no Calcium, no Glutamine)) (Life Technologies Corporation) were inoculated subcutaneously into the right hind flank of female SCID or SCID-beige (MV4-11, HT1080) mice (Charles Rivers Labs) on study day 0. Compound was formulated in 2% EtOH, 5% Tween-80, 20% PEG-400, 73% HPMC (Ramos, OPM-2 and MX-1) or 5% DMSO, 5% EtOH, 30% PEG400, 60% Phosal 53 (MV4-11, HT1080). Administration of compound was initiated at the time of size match on day 8 (HT1080), day 17 (MX-1), or day 18 (Ramos, MV4-11, OPM-2). The tumors were measured by a pair of calipers twice a week starting at the time of size match and tumor volumes were calculated according to the formula V=L×W^2/2 (V: volume, mm^3; L: length, mm. W: width, m) Tumor volume was measured for the duration of the experiment until the mean tumor volume in each group reached an endpoint of >1000 mm^3.

SK-LMS-1 = experiment: Proliferation panel assay, SK-LMS-1; format: cell-based; settings: Homo sapiens, 120 h; Sarcoma, SK-LMS-1, 5 days; read-out: Cellular Proliferation EC50
Protocol: (§2) The impact of compounds of the Examples on cancer cell proliferation was determined using the breast cancer cell line MX-1 (ATCC) in a 3-day proliferation assay. MX-1 cells were maintained in RPMI supplemented with 10% FBS at 37 C.° and an atmosphere of 5% CO2. For compound testing, MX-1 cells were plated in 96-well black bottom plates at a density of 5000 cells/well in 90 μl of culture media and incubated at 37° overnight to allow cell adhesion and spreading. Compound dilution series were prepared in DMSO via a 3-fold serial dilution from 3 mM to 0.1 μM. […]
(§3) Luminescence readings from the Cell Titer Glo assay were normalized to the DMSO treated cells and analyzed using the GraphPad Prism software with sigmoidal curve fitting to obtain EC50s. The minimum significant ratio (MSR) was determined to evaluate assay reproducibility (Eastwood et al., (2006) J Biomol Screen, 11: 253-261). The overall MSR was determined to be 2.1 and a moving MSR (last six run MSR overtime) has been <2.
(§4) The compound of Example 40 was tested for its impact on proliferation of a panel of cancer cell line types (with specific cell lines tested) as set out in (Table 2). […] Cell proliferation data were analyzed as described above in the MX-1 proliferation assay to obtain the EC50 for the compounds reported in Table 2.

[2] = test system: Ramos human B cell lymphoma cancer xenograft; experiment: Xenograft tumor growth inhibition assay, Ramos; format: in vivo, mice; settings: 100 mg/kg/day PO
Protocol: as §1

[3] = test system: LPS induced IL-6 production; experiment: LPS (lipopolysaccharide) induced IL-6 production mouse assay; format: in vivo; settings: mice, one hour before LPS, serum 2 hours after LPS
Protocol: Compounds of the Examples listed in Table 8 were assayed for their ability to inhibit LPS (lipopolysaccharide) induced IL-6 production in mice. Severe combined immunodeficient female mice (8 per group) received an intraperitoneal challenge of lipopolysaccharide (2.5 mg/kg, L2630 E. coli 0111:B4) one hour after oral administration (PO) or intraperitoneal administration (IP) of compounds in a solution of 2% ethanol, 5% Tween-80, 20% PEG-400 and 73% (0.2% hydroxypropylmethylcellulose in water). Mice were euthanized 2 hours after lipopolysaccharide injection, blood was removed by cardiac puncture, and then the serum harvested from the blood samples was frozen at −80° C. On the day of the assay the serum samples were brought to room temperature and then diluted 1:20 in phosphate-buffered saline containing 2% bovine serum albumin. Interleukin-6 measurements were performed using a cytokine assay from Meso Scale Discovery (Gaithersburg, Md.) for mouse serum analysis according to the manufacturer's protocol and read on a SECTOR Imager 6000 (Meso Scale Discovery, Gaithersburg, Md.) instrument. Statistical analysis was performed using Prism software (version 5.0) incorporating Dunnett's one way ANOVA. The IL-6 mean and standard deviation of the group of vehicle treated animals were compared with the IL-6 mean and standard deviation of the group treated with drug. A p value <0.05 means that there is less than a 5% probability that the mean values in the two groups are equal.

DLD-1 = experiment: Proliferation panel assay, DLD-1; format: cell-based; settings: Homo sapiens, 120 h; Colon, DLD-1, 5 days; read-out: Cellular Proliferation EC50
Protocol: as §2, §3, §4

Cc1[nH]c(-c2cc(NS(C)(=O)=O)ccc2Oc2ccccc2)c2c1C(=O)CCC2 [Example 40, N-[3-(3-methyl-4-oxo-4,5,6,7-tetrahydro-2H-isoindol-1-yl)-4-phenoxyphenyl]methanesulfonamide]
% TGI (tumor growth inhibition) ([1]; 10 mg/kg/day PO): −1%
% TGI (tumor growth inhibition) ([1]; 30 mg/kg/day PO): 14%
% TGI (tumor growth inhibition) ([1]; 100 mg/kg/day PO): 52** %
EC50 (SK-LMS-1): 176 nM
% TGI (tumor growth inhibition) ([2]; BID (5on 3off) x 2, based on day 31): 35*** %
% TGD (tumor growth delay) ([2]; BID (5on 3off) x 2, endpoint 1000 mm^3): 40** %
% TGI (tumor growth inhibition) ([2]; QDx14, based on day 31): 30* %
% TGD (tumor growth delay) ([2]; QDx14, endpoint 1000 mm^3): 40* %
% inhibition of LPS induced IL-6 production ([3]; 3 mg/kg (PO)): 28.7 at 3 mg/kg (PO) %
% inhibition of LPS induced IL-6 production ([3]; 10 mg/kg (PO)): 52.4 at 10 mg/kg (PO) %
% inhibition of LPS induced IL-6 production ([3]; 30 mg/kg (PO)): 72.7 at 30 mg/kg (PO) %
% inhibition of LPS induced IL-6 production ([3]; 50 mg/kg (IP)): 84.7 at 50 mg/kg (IP) %
EC50 (DLD-1): 450 nM
